In article PMC9785144, “Metal Coordination and Biological Screening of a Schiff Base Derived from 8-Hydroxyquinoline and Benzothiazole” (Pharmaceutics, 2022):
Blank lines part the entries; values can stand above or below the molecule they belong to.

Key:
HCT-116 cells [1] = assay: Wound-healing migration assay, HCT-116; assay type: cell-based, human; details: HCT-116, 40 μM, at 22 h (control 50%)
Procedure: To assess cellular migration in the presence or absence of tested compounds, HCT-116 and CT-26 cells were plated at 1.5 × 10^5 and 3 × 10^5 cells/mL in a 12-well plate (1 mL/well) and were allowed to adhere and grow until reaching around 80–90% confluence. A sterile 10 μL pipette tip was used to wound the cell monolayer, followed by a washing step with PBS to remove debris. Then, cells were incubated with the tested compounds suspended in RPMI-1640 (CT-26) or DMEM media (HCT-116) supplemented with 2% FBS and 100 IU/mL of penicillin and 100 μg/mL streptomycin (Gibco, Thermo Fisher Scientific, Waltham, MA, USA), and hereafter designated as RPMI 2% and DMEM 2%, respectively. Under the above mentioned culture conditions, CT-26 cells were incubated with [Ni(HL)(acetate)] or [Ru(HL)Cl(DMSO)] at concentrations of 10 and 15 μM, respectively. […] The positive control, 5-FU, was tested at 1.5 and 40 μM for CT-26 and HCT-116, respectively. Negative control group was constituted by cells maintained in RPMI 2% (CT-26) and DMEM 2% (HCT-116). Images of the wound closure were taken beneath the stage of a Zeiss Axiovert 200 inverted microscope, using a 10× objective and a digital camera (CoolSNAP EZ, Photometrics, Huntington Beach, CA, USA) and recorded by the Metafluor Software at 0, 2, 4, 8, 18, 20 and 22 h following cell monolayer scratching (Molecular Devices, Sunnyvale, CA, USA). […]

HCT-116 cells [2] = tested on: HCT-116 cells; set-up: method as in PMID 34389368, PMID 34562873; details: HCT-116, concentrations around 20 μM; cited from earlier work
CT-26 colon cancer cells = assay: MTT antiproliferative assay, CT-26; assay type: cell-based, murine; details: Mus musculus, CT26; CT-26, MTT, 48 h incubation
Procedure: (§1) Murine colon cancer CT-26 (ATCC® CRL-263™) cells were cultured in RPMI-1640, supplemented with 10% foetal bovine serum (FBS) and 100 IU/mL of penicillin and 100 μg/mL streptomycin (Gibco, Thermo Fisher Scientific, Waltham, MA, USA), hereafter designated as complete culture medium. Human colon cancer HCT-116 (ATCC® CCL-247™), human melanoma A375 (ATCC® CCL-1619™), murine melanoma B16F10 (ATCC® CCL-6475™) cells and human epidermal keratinocytes (HaCaT) were maintained in Dulbecco’s modified Eagle’s medium (DMEM) with high-glucose (4500 mg/L) (Sigma-Aldrich, St. Louis, MO, USA), supplemented with 10% FBS and 100 IU/mL of penicillin and 100 μg/mL streptomycin (Gibco, Thermo Fisher Scientific, Waltham, MA, USA), also designated as complete culture medium. The cell lines were maintained at 37 °C in a 5% CO2 environment and cells were trypsinised every 2–3 days when 80% confluence was reached.
(§2) Negative controls were cells maintained in complete culture medium.

[3] = tested on: HCT-116 colon cancer cells; assay: MTT antiproliferative assay, HCT-116; assay type: cell-based, human; details: Homo sapiens; HCT-116, MTT, 48 h incubation
Procedure: as §1, §2

CT-26 cells = assay: Guava ViaCount cell viability assay; assay type: cell-based, murine; details: CT-26, 48 h incubation
Procedure: CT-26 cells were incubated with [Ni(HL)(acetate)] or [Ru(HL)Cl(DMSO)] at concentrations of 5 and 10 μM or 10 and 20 μM, respectively. For the HCT-116 cell line, the tested concentrations were 5 and 7.5 μM, and 7.5 and 12.5 μM, respectively. The positive control group, 5-FU, was tested at 0.5 and 2 μM, and at 20 and 40 μM for CT-26 and HCT-116, respectively. Negative control group was constituted by cells in the presence of complete culture medium. After a 48 h incubation period, cell culture supernatants were collected, and adherent cells were detached using TrypLE™ Express (Invitrogen). Detached cells were then added to supernatants and the wells were washed using PBS with 2% FBS to recover any remaining cells. The recovered suspension was added to the previously collected cells and supernatants and centrifuged for 5 min at 650× g. The supernatants were discarded, and cells were suspended in PBS with 2% FBS. Then, on a 96-well plate, 20 μL of cell suspension was incubated with 180 μL of Guava ViaCount® reagent (Merck Millipore, Darmstadt, Germany) for 5 min at r. t. Using a Guava EasyCyte 5HT Flow cytometer (Guava Technologies, Inc., Hayward, CA, USA), data were collected and analysed with the ViaCount software module with the acquisition of 10,000 events per sample. GraphPad Prism®8 was used to analyse cell proliferation (GraphPad Software, San Diego, CA, USA). […]

HCT-116 cell line = tested on: HCT-116 cell line; set-up: method as in PMID 26961176; details: cited from earlier work
cancer cells = details: in vitro; cited from earlier work
[4] = Stability in PBS pH 7.4 without and with BSA (UV-vis); assay type: physicochemical; details: PBS pH 7.4, 25 °C, <1% DMSO, without BSA
Procedure: The complexes were monitored for their stability in PBS, pH 7.4 at 25 °C in the absence and presence of equimolar amounts of bovine serum albumin (BSA). Stock solutions of each complex were prepared in DMSO and then diluted in PBS in order to obtain final concentrations of 20 to 30 µM and ensuring that the organic solvent was less than 1% (v/v). For the assays with BSA, stock solutions of the protein were prepared in PBS using 20 mg of lyophilised powder in 5 mL solvent, which were allowed to hydrate for 24 h in the refrigerator. Samples were monitored by UV-vis absorption spectroscopy for 6 h and a final measurement was also taken after 24 h.

[5] = target: bovine serum albumin (BSA) (Bos taurus, UniProt P02769); assay: Albumin binding by fluorescence quenching and circular dichroism; details: BSA ca. 20–25 μM, bands centred at ca. 360 nm, compound 5 to 70 μM
bovine serum albumin (BSA), sequence (P02769 25-607): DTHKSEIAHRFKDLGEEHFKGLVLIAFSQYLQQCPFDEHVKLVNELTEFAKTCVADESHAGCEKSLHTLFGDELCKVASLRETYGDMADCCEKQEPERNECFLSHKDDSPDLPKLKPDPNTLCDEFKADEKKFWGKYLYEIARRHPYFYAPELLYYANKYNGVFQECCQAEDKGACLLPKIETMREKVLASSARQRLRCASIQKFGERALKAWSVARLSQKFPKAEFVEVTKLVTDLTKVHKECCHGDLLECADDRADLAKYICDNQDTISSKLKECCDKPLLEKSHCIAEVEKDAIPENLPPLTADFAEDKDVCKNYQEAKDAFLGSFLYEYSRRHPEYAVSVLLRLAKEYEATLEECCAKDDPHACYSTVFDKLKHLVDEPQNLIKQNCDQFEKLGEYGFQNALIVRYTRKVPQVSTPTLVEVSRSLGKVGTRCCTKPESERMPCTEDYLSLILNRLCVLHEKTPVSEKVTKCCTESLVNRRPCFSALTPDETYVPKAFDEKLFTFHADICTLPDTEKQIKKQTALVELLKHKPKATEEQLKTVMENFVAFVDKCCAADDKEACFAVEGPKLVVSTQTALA
Procedure: The concentration of BSA in the experiments was ca. 1.5 μM (in aqueous PBS). The fluorescence emission spectra were recorded between 310 and 575 nm, with λex = 295 nm. Successive additions of the complexes were done directly to the cuvette (optical path 1 cm) and the fluorescence emission spectra were recorded for each one under the same conditions. Blank assays for each sample, consisting in solutions with the same concentration of complex and no BSA, were recorded and subtracted to the corresponding emission spectra containing the fluorophore. The UV-vis spectra of the sample solutions were used to correct the emission spectra, minimizing inner filter and reabsorption phenomena interference.
The concentration of BSA in the experiments was ca. 20–25 μM (in aqueous PBS). The circular dichroism (CD) spectra are an average of three scan accumulations, recorded between 300 and 500 nm, with bandwidth of 1 nm and response of 2 s, using a scanning speed of 100 nm/min. Successive additions of the complexes stock solutions in DMSO were done directly to the cuvette (1 cm) and the CD spectra were recorded under the same conditions after 10 min equilibration. Induced CD spectra were obtained as the CD spectrum of compound-BSA mixture minus the CD spectrum of BSA alone and are expressed as ellipticity in millidegrees.

- IC50 (CT-26 colon cancer cells): 2.7 ± 1.9 µM
- IC50 [3]: 43.8 ± 2.3 µM
SMILES: O=c1[nH]cc(F)c(=O)[nH]1 [5-FU, 5-fluorouracil, reference compound]
- maximum wound closure (HCT-116 cells [1]): 39%
- cell cycle arrest (HCT-116 cells [2]): arrested cell cycle at S phase
- cell viability by Guava ViaCount (CT-26 cells): higher percentage of dead and apoptotic cells

SMILES: CS(C)=O.[Cl-].[Cl-].[Cl-].[Cl-].[Ru+3].c1c[nH+]c[nH]1.c1c[nH]cn1 [NAMI-A]
- effect on cell adhesion and migration (HCT-116 cell line): inhibitory effect in reducing cell adhesion and migration
- cytotoxicity against cancer cells (cancer cells): minimal cytotoxicity
- fold lower activity than cisplatin (cancer cells): 1000 fold

- induced CD bands with BSA [5]: high intensity induced CD bands
SMILES: [O]=[V]([O]c1cccc2ccc(/C=N/Nc3nc4ccccc4s3)nc12)[O]c1cccc2ccc(/C=N/Nc3nc4ccccc4s3)nc12 [[VO(HL)2]]
- solubility and stability in PBS buffered solutions [4]: oxidation of the metal centre likely takes place
